Measured values: publication PMC12349723, “Computationally accelerated identification of P-glycoprotein inhibitors” (PLOS One, 2025)
Several values for one entry are separate records, joined by “and”; a condition that tells them apart may be missing. Equal entries are not always repeated. Where two headings read alike, the source gives them in different places.

Experiments:
P-gp [1] = target: T1, P-gp (Homo sapiens, UniProt P08183); experiment: Top Hit classification from combined in vitro criteria; conditions: reverse MDR, do not increase PTX toxicity in chemo-sensitive cancer cells, non-toxic to noncancerous cells, not P-gp substrates
T1 construct: The MDR, P-gp overexpressing DU145-TXR cells were maintained under positive selection pressure; endogenous in cells; host or cells: DU145-TXR (paclitaxel-resistant sub-line of DU145 human prostate cancer cells)
T1 sequence (P08183 whole entry): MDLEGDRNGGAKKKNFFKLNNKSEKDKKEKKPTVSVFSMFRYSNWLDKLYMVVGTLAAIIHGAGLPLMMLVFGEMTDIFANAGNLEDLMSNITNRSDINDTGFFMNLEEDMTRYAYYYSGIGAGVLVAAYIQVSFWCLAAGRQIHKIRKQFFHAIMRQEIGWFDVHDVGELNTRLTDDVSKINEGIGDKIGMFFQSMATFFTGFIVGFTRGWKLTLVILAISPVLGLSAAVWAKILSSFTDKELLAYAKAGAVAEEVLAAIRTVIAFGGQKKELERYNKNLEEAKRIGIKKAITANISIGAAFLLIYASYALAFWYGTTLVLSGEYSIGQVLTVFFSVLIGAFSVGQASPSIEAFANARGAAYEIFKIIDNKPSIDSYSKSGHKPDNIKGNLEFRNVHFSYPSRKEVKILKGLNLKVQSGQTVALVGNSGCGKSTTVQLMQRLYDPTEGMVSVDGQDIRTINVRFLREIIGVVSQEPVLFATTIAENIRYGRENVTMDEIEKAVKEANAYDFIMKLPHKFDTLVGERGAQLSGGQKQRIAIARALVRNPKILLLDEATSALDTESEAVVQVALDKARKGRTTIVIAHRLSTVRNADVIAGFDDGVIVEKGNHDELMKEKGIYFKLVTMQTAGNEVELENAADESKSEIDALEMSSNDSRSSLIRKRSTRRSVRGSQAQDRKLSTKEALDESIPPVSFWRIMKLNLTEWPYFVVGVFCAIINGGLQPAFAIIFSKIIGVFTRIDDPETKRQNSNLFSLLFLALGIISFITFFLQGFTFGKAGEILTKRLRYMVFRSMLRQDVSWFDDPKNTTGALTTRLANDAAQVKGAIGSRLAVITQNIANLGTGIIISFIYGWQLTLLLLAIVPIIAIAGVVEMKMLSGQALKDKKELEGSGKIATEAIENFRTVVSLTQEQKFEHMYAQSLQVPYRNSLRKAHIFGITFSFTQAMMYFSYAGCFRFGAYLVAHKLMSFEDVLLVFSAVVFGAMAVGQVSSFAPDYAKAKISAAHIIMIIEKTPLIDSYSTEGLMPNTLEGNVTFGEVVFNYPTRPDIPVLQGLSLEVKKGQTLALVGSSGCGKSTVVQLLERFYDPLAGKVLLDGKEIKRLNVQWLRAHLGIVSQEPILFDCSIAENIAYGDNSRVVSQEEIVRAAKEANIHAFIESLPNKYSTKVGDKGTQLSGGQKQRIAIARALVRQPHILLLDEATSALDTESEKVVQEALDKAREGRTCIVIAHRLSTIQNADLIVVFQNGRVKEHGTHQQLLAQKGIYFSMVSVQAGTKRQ

P-gp [2] = experiment: SWISS-ADME prediction of P-gp transport substrate; conditions: prediction compared to the LC-MS/MS intracellular accumulation data
Source text: Identifying P-gp inhibitors that are not transport substrates remains inherently challenging. To that end, computational tools such as the SWISS-ADME server attempt to use a molecule’s unique chemical and structural characteristics to predict whether it is likely to be a P-gp transport substrate. Our LC-MS/MS assays allowed us to retroactively test the validity of predictions from SWISS-ADME. […] Alternative identifiers for the molecules identified in this study are shown in S7 Table.
S1 Table. Known P-gp Inhibitors and Predicted Chemical Properties. A non-exhaustive list of known P-gp inhibitors and their selected chemical properties ^[64, 65]. Clinical trial outcomes were adapted from ^[10, 11]. Compounds were evaluated using the SWISS-ADME server ^[54]. […] “Predicted P-gp Substrate” - predicted by SWISS-ADME to be a transport substrate of P-gp. “Known P-gp Substrate” – In addition to being P-gp inhibitors, these molecules are: known transport substrates of P-gp, known non-transport substrates of P-gp, unknown whether it is a transport substrate of P-gp ^[66-68]. If the molecule is designated in a specific generation of P-gp inhibitors - First Generation P-gp inhibitors, Second generation P-gp inhibitors, Third generation P-gp inhibitors.

DU145 cells = experiment: MTT viability assay, non-P-gp overexpressing DU145 parental line, with or without PTX; type: cell-based, human; conditions: for Sensitization of DU145 cells to PTX: 15 µM compound + PTX vs PTX alone; for viability at 15 µM: Homo sapiens, DU-145, 48 h
Procedure: The chemotherapeutic sensitive DU145 human prostate cancer cells and the multidrug resistant sub-line, DU145-TXR, were generous gifts from Dr. Evan Keller (University of Michigan, Ann Arbor, MI). The MDR, P-gp overexpressing DU145-TXR cells were maintained under positive selection pressure by supplementing complete medium with 10 nM paclitaxel (Acros Organics, NJ). […] The MDR, P-gp overexpressing A2780-ADR cell line was maintained under positive selection pressure by supplementing complete medium with 100 nM doxorubicin (Fisher Scientific, NJ). The non-cancerous HFL1 (human lung fibroblast) cell line cell line was a generous gift from Dr. Robert Harrod (Southern Methodist University, Dallas, TX) and was maintained in complete F12K media consisting of F12K with 10% fetal bovine serum, 100 U/mL penicillin, and 100 µg/mL streptomycin (Gibco). Flasks and 96 well plates that were used with the non-cancerous line HFL1 were pre-treated with 0.1 mg/ml Collagen Type 1 (Gibco) and rinsed with PBS (Fisher).
Culture of the DU145, DU145-TXR, and HFL1 cell lines was performed as described in [8]. Culture of the A2780 and A2780-ADR cell lines was performed as described in [9]. MTT assays were performed as described in [8] with minor modifications. […] Data represent the mean of two separate experiments, with n = 3 samples per experiment (n = 6 total) (S4 Table).
MTT assays measure the reduction of yellow, water soluble 3-(4,5-dimethylthiazol-2-yl)-2,5-diphenyltetrazolium bromide (MTT) to blue, insoluble formazan crystals by cellular reductase processes in living cells. Cells were trypsinized from monolayers and seeded in complete medium in 96 well plates. Cancerous cell lines (DU145, DU145-TXR, A2780, A2780-ADR) were seeded at 3,000 cells per well in complete RPMI medium. The non-cancerous HFL1 line was seeded at 4,000 cells per well in complete F12K medium, in collagen-treated plates (Collagen Type 1, Gibco). Cells were incubated with experimental compounds for 48 hours at 37 °C and 5% CO2 in a humidified incubator. At 48 hours, MTT was added (20 µL/well of 5 mg/mL MTT in PBS) to each well. After incubation for 4 hours, the media was removed, and the formazan crystals were dissolved in 100 µL DMSO per well. Plates containing the semi-adherent A2780 or A2780-ADR lines were spun at 1400 rpm for 3 minutes prior to aspiration of media, and the addition of DMSO. Plates were shaken for 10 minutes at 500 rpm on an Orbital shaker (LabDoctor from MidSci, St Louis, MO). The absorbance was measured at 570 nm using a Bio-Tek Cytation 5 (Bio-Tek, Winooski, VT). The measured absorbance value was correlated with the number of metabolically active cells in that well, corrected for absorbance of media. The percent of cell viability (termed ‘survival’ here) was calculated as a percentage of survival of the control condition, which refers to vehicle-treated (DMSO as vehicle) cells, or vehicle-and-chemotherapeutic-treated cells, if testing a compound’s ability to re-sensitize cells to a chemotherapeutic. Percent survival was calculated using the following equation:
% Survival=100 × absorbance of experimental cells/mean absorbance of control treated cells
For DU145-TXR, DU145, HFL1 and A2780 cells – data are the mean ± one standard deviation, 8 samples per compound, from at least two independent trials per compound. […] For A2780-ADR cells, data are the mean ± one standard deviation with 12 samples per compound, from at least two independent trials per compound.
67 compounds were chosen from computational screens for testing in vitro. A) DU145-TXR cells were exposed to 15 µM experimental compound with or without 500 nM of the P-gp substrate and chemotherapeutic paclitaxel (PTX).

[3] = DU145 cells, 48 h, mean of 8 samples
[4] = DU145 cells, 48 h, single samples, 2 trials x 4 samples
[5] = DU145 cells, 48 h, mean of 8 samples, read-out: % Survival, Mean, 15 µM Compound alone

Row | SMILES | Top Hit (P-gp [1]) | Correct P-gp Substrate Prediction? (P-gp [2]) | Sensitization of DU145 cells to PTX (DU145 cells) | % Survival, Mean, 15 µM compound + 500 nM PTX (DU145 cells; [3]) [%] | % Survival, 15 µM Compound alone (individual samples) (DU145 cells; [4]) | viability at 15 µM (DU145 cells; [5]) [%] | viability at 15 µM (DU145 cells; DU145 cells, 48 h, single samples, 2 trials x 4 samples, read-out: % Survival, 15 µM Compound alone (individual samples)) [%] | % Survival, 15 µM compound + 500 nM PTX (individual samples) (DU145 cells; [4]) | % Survival, Mean, 15 µM Compound alone (DU145 cells; [3]) [%]
1 | Nc1nonc1-n1nnc(C(=O)N/N=C/c2c3ccccc3cc3ccccc23)c1COc1ccc(F)cc1 [Compound 60, Nc1nonc1-n1nnc(C(=O)N\N=C\c2c3ccccc3cc3ccccc23)c1COc1ccc(F)cc1] | No | No | – | – | – | – | – | – | –
2 | COc1cccc(N2CCN(c3ccc4nnc(CCC(=O)Nc5ccc(F)c(F)c5)n4n3)CC2)c1 [Compound 101, COc1cccc(c1)N1CCN(CC1)c1ccc2nnc(CCC(=O)Nc3ccc(F)c(F)c3)n2n1] | Yes | No | insignificantly sensitize DU145 cells to PTX | 24.0 | 89% | 89.9 | 92 | – | –
3 | O=C(c1nc(-c2ccccn2)no1)N1CCN(c2nsc3ccccc23)CC1 [Compound 124, O=C(N1CCN(CC1)c1nsc2ccccc12)c1nc(no1)-c1ccccn1] | No | No | insignificantly sensitize DU145 cells to PTX | 20.9 | 85% | 76.9 | – | 17% and 26% | –
4 | Cc1onc(-c2ccccc2)c1-c1nnc(Cn2cnc3c(oc4ccccc43)c2=O)o1 [Compound 78, Cc1onc(c1-c1nnc(Cn2cnc3c4ccccc4oc3c2=O)o1)-c1ccccc1] | Yes | No | insignificantly sensitize DU145 cells to PTX | 33.6 | 94% | 89.2 | – | 31% | –
5 | O=C(c1nc(-c2ccc3cc[nH]c3c2)no1)N1CCN(c2nsc3ccccc23)CC1 [Compound 70, O=C(N1CCN(CC1)c1nsc2ccccc12)c1nc(no1)-c1ccc2cc[nH]c2c1] | Yes | No | insignificantly sensitize DU145 cells to PTX | 30.5 | 88% | 84.7 | – | 32% and 30% | –
6 | Cc1ccc(-c2noc(-c3cn(Cc4ccc(NS(=O)(=O)c5ccccc5F)cc4)cn3)n2)cc1 [Compound 103, Cc1ccc(cc1)-c1noc(n1)-c1cn(Cc2ccc(NS(=O)(=O)c3ccccc3F)cc2)cn1] | No | No | insignificantly sensitize DU145 cells to PTX | 29.4 | – | 77.7 | – | – | –
7 | O=S(=O)(Cc1nc2ccccc2n1CC(O)c1ccc(Cl)cc1)c1ccccc1 (stereo not drawn) [Compound 97, OC(Cn1c(CS(=O)(=O)c2ccccc2)nc2ccccc12)c1ccc(Cl)cc1] | Yes | Yes | insignificantly sensitize DU145 cells to PTX | 23.9 | 72% | 73.5 | – | – | –
8 | O=S(=O)(CCSc1nnc(-c2ccccc2)c2ccccc12)c1ccccc1 [Compound 96, O=S(=O)(CCSc1nnc(-c2ccccc2)c2ccccc12)c1ccccc1] | Yes | Yes | insignificantly sensitize DU145 cells to PTX | 28.8 | 65% | 77 | – | 26% | –
9 | COc1ccc2c3c([nH]c2c1)[C@H](CC(C)C)N1C(=O)[C@H](CCC(=O)OC(C)(C)C)NC(=O)[C@@H]1C3 [Ko143, reference compound] | – | – | – | 20.1 | 89% and 88% and 53% and 50% and 46% and 42% and 86% and 91% | – | – | 12% and 13% and 16% and 22% and 23% and 24% and 25% | 68.1
10 | NS(=O)(=O)c1cccc(NC(=O)CSc2nnnn2C2CC2)c1 [Compound 89, NS(=O)(=O)c1cccc(NC(=O)CSc2nnnn2C2CC2)c1] | No | – | – | – | – | – | – | – | –
11 | COc1cc2c(cc1OC)CN(CCc1ccc(NC(=O)c3cc(OC)c(OC)cc3NC(=O)c3cnc4ccccc4c3)cc1)CC2 [Tariquidar, reference compound] | – | – | – | 12.0 | – | 86.1 | – | – | –
12 | O=C(c1cc2ccccc2[nH]1)N1CCN(S(=O)(=O)c2cccc3nonc23)CC1 [Compound 66, O=C(N1CCN(CC1)S(=O)(=O)c1cccc2nonc12)c1cc2ccccc2[nH]1] | No | No | – | – | – | – | – | – | –
13 | COc1ccc(OC)c(NC(=O)c2nnn(-c3ccc4noc(-c5ccccc5)c4c3)c2C)c1 [Compound 71, COc1ccc(OC)c(NC(=O)c2nnn(c2C)-c2ccc3noc(-c4ccccc4)c3c2)c1] | No | No | – | – | – | – | – | – | –
14 | Cn1cnnc1SCc1c(C(=O)O)nnn1-c1nonc1N [Compound 59, Cn1cnnc1SCc1c(nnn1-c1nonc1N)C(O)=O] | No | – | – | – | – | – | – | – | –
